Values of other authors, collected in patent publication US10507179B2, “Formulations of levosimendan for intravenous administration as infusion or injection and of infusion concentrate” (CARINOPHARM GmbH, priority 2015, dated 2019).
In brackets after ≈: the same amount, converted by molar mass. Several values for one entry are separate records, joined by “and”; a condition that tells them apart may be missing. Identical values can stand only once.

Assays:
[1] = not given; remark: listed apart in the source

Structure (SMILES): C[C@@H]1CC(=O)NN=C1c1ccc(NN=C(C#N)C#N)cc1 [Levosimendan, (−)-[[4-(1,4,5,6-tetrahydro-4-methyl-6-oxo-3-pyridazi-nyl)phenyl]hydrazono]propane dinitrile]
- pKa: 6.3 and 6.26
- solubility ([1]; pH value of 2): 20 µg/mL (≈ 71.4 µM)
- stability in aqueous solutions ([1]; physiological pH): not stable
- solubility in phosphate buffer ([1]; room temperature, physiological pH of 7.4): 400 µg/mL (≈ 1430 µM)
